Measurements as given in PMC11331138, “Leveraging coevolutionary insights and AI-based structural modeling to unravel receptor–peptide ligand-binding mechanisms” (Proceedings of the National Academy of Sciences of the …, 2024).

T1: MIK2 (MALE DISCOVERER 1-INTERACTING RECEPTOR-LIKE KINASE 2) ectodomain, wild type (Arabidopsis thaliana, UniProt Q8VZG8 44-709)
T1 chain: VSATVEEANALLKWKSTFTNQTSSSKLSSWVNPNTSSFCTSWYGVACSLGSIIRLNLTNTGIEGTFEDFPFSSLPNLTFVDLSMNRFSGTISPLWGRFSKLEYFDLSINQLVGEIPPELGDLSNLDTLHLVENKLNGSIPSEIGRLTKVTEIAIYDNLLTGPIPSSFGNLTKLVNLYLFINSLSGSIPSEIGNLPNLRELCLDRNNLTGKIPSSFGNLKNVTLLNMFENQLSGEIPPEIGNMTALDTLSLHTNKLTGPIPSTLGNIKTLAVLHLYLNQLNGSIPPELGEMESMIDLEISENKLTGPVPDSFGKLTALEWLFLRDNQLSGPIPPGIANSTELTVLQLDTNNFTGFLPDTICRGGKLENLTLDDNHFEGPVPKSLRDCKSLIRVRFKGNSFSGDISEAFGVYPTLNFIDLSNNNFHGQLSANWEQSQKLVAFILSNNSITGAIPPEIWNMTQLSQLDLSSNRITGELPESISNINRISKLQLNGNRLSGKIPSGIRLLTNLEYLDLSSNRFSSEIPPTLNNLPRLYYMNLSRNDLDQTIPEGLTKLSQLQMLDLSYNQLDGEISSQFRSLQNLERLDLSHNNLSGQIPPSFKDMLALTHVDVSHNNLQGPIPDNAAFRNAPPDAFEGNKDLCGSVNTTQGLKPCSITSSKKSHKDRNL


Key:
[1] = test system: R. islandica MIK2; experiment: ROS production, R. islandica MIK2 expressed in N. benthamiana; assay type: cell-based, Rorippa islandica; settings: 1 μM SCOOP
Protocol: (§1) removed and ROS production was measured upon addition of a 100-μL assay solution which contained 10 μg/mL
(§2) horseradish peroxidase (P6782, Merck), 10 mM luminol and the treatment (1 μM SCOOP, 0.1 μM flg22 or H2O).
(§3) Luminescence was quantified with a HIGH-RESOLUTION PHOTON COUNTING SYSTEM (HRPCS218, Photek). Four
(§4) technical replicates per biological replicate (specified in Fig. S2) were quantified for each treatment, significant
(§5) differences were determined by performing a two-group Mann-Whitney U Test between each SCOOP treatment
(§6) and the mock treatment. R and the R-packages dplyr (v1.1.2), ggpubr (v.0.6.0), and ggplot2 (v3.4.2) were used to
(§7) analyze and plot the data. The resulting figure was edited in Corel-DRAW Home & Student x7.
(§8) Functional validation MIK2 homologues
(§9) All constructs were created using a hierarchical modular cloning approach facilitated by the MoClo toolkit and the
(§10) MoClo Plant Parts kit (25, 26). For recombinant expression, we used the previously published Arabidopsis MIK2
(§11) sequence (L0 level backbone, CZLp4829) (27), and MIK2 homologues were synthesized with domesticated BsaI […]
(§12) while using diverse Arabidopsis SCOOPs (AA sequences, Dataset S1) and fl g22. Biological replicates were quantified […]
(§13) H2O and rested for a minimum of 30 min in the dark. Two readings were taken in a TECAN SPARK plate reader every […]

[2] = test system: Arabidopsis Col-0; settings: selection criterion; ref [17]; cited from earlier work
Description: To test the conservation of plant responses to SCOOPs, we measured the production of ROS—a hallmark of LRR-RK activation—triggered by SCOOPs. […] The SCOOP SxS motif is unique across known plant-secreted signaling peptides in contrast to the N-terminal asparag ... || The S5 and S7 binding pockets were functionally validated by testing MIK2 variants using three experimental approaches; A) SCOOP12-binding to MIK2 ectodomain in vitro, B) SCOOP12-induced complex formation with its coreceptor BAK1 in vivo, and C) ROS production upon SCOOP treatments as a marker for receptor complex activation (Fig. 4 and SI Appendix, Fig. S6).

[3] = test system: D. strictus MIK2; experiment: ROS production, D. strictus MIK2 expressed in N. benthamiana; assay type: cell-based, Diptychocarpus strictus; settings: 1 μM SCOOP
Protocol: as §1, §2, §3, §4, §5, §6, §7, §8, §9, §10, §11, §12, §13

[4] = test system: B. rapa MIK2; experiment: ROS production, B. rapa MIK2 expressed in N. benthamiana; assay type: cell-based, Brassica rapa; settings: 1 μM SCOOP
Protocol: as §1, §2, §3, §4, §5, §6, §7, §8, §9, §10, §11, §12, §13

[5] = target: T1, MIK2 (MALE DISCOVERER 1-INTERACTING …); experiment: ITC
[6] = target: MIK2 ectodomain S292A (S7 binding pocket variant) (Arabidopsis thaliana, UniProt Q8VZG8 44-709, S292A); experiment: ITC
Sequence of MIK2 ectodomain S292A (S7 binding pocket variant) (Q8VZG8 44-709 S292A): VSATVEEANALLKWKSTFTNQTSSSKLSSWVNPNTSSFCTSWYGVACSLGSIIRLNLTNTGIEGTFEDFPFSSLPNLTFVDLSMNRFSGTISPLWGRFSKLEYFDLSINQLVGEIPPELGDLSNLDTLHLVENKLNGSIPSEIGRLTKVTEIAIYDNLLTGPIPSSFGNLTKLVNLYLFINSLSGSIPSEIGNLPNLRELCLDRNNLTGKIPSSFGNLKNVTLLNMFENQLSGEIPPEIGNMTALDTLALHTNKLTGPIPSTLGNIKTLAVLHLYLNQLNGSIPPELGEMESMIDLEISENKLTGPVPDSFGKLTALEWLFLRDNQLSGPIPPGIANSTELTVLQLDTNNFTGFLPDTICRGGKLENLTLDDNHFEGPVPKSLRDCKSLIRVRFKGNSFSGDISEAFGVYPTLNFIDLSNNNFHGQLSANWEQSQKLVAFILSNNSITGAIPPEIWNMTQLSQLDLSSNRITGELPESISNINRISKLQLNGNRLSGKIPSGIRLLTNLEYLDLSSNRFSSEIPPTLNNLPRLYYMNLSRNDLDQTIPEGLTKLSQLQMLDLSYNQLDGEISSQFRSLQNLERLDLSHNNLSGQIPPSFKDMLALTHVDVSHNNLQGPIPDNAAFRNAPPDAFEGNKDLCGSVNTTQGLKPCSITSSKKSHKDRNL

Molecule	SCOOP-induced ROS production (in words) [1]	ROS production upon SCOOP treatment in Arabidopsis [2]	SCOOP-induced ROS production (in words) [3]	SCOOP-induced ROS production (in words) [4]	Kd [5] [nM]	Kd [6] [nM]
YVPPSKSRRGKGP [SCOOP16]	conferred responsiveness	robust ROS production	conferred responsiveness	–	–	–
RVPRSKSPPDRQW [SCOOP24]	–	robust ROS production	–	did not lead to significant ROS production	–	–
PVRSSQSSQAGGR [SCOOP12 (SERINE RICH ENDOGENOUS PEPTIDE 12), synthetic peptide]	–	–	–	–	2120	1240
